# From patent publication US8372982B2, “Fungicidal N-(Phenylcycloalkyl)carboxamide, N-(Benzylcycloalkyl)carboxamide and thiocarboxamide derivatives” (Bayer Cropscience AG, priority 2009, dated 2013)
# System: Leptosphaeria nodosum
# Test: In vivo comparative test on Leptosphaeria nodoruin (wheat)/preventive
# Details: dose of 500 ppm, preventive, evaluated 10 days after the inoculation
# Procedure: Solvent: 49 parts by weight of N,N-dimethylacetamide Emulsifier: 1 part by weight of alkylaryl polyglycol ether To produce a suitable preparation of active compound, 1 part by weight of active compound or the compound combination is mixed with the stated amounts of solvent and emulsifier, and the concentrate is diluted with water to the desired concentration. To test for protective activity, young plants are sprayed with a preparation of active compound or active compound combination at the stated rate of application. After the spray coating has dried on, the plants are sprayed with a spore suspension of Leptosphaeria nodosum. The plants remain for 48 hours in an incubation cabinet at 20° C. and a relative atmospheric humidity of 100%. The plants are placed in a greenhouse at a temperature of approximately 15° C. and a relative atmospheric humidity of approximately 80%. The test is evaluated 10 days after the inoculation. 0% means an efficacy which corresponds to that of the control, while an efficacy of 100% means that no disease is observed. […]
smiles,measurement,value
"Cn1cc(C(=O)N[C@@H]2C[C@@H]2c2ccc(Cl)cc2)c(C(F)F)n1 (relative stereo) [Example 1.001, cis-N-[2-(4-chlorophenyl)cyclopropyl]-3-(difluoro-methyl)-1-methyl-1H-pyrazole-4-carboxamide]",disease control,less than 10%
